Results as given in ChEMBL document CHEMBL4396901, “Discovery of Potent and Noncovalent Reversible EGFR Kinase Inhibitors of EGFRL858R/T790M/C797S” (ACS Med Chem Lett, 2019).
The source made the active and inactive calls. No cut-off for these calls is given here.

How the values were obtained:
[1] = tested on: Epidermal growth factor receptor (Homo sapiens), P00533 [L858R,T790M,C797S]; assay: (§1) Inhibition of recombinant human C-terminal His-tagged/N-terminal GST-tagged EGFR (668 to 1210 residues) T790M/L858R/C797S mutant expressed in baculovirus expression system using poly (Glu,Tyr) 4:1 as substrate incubated for 1 hr in presence of ATP by ELISA
Epidermal growth factor receptor (Homo sapiens), P00533 [L858R,T790M,C797S], sequence (P00533 whole entry T790M/C797S/L858R, the tested form may be a part): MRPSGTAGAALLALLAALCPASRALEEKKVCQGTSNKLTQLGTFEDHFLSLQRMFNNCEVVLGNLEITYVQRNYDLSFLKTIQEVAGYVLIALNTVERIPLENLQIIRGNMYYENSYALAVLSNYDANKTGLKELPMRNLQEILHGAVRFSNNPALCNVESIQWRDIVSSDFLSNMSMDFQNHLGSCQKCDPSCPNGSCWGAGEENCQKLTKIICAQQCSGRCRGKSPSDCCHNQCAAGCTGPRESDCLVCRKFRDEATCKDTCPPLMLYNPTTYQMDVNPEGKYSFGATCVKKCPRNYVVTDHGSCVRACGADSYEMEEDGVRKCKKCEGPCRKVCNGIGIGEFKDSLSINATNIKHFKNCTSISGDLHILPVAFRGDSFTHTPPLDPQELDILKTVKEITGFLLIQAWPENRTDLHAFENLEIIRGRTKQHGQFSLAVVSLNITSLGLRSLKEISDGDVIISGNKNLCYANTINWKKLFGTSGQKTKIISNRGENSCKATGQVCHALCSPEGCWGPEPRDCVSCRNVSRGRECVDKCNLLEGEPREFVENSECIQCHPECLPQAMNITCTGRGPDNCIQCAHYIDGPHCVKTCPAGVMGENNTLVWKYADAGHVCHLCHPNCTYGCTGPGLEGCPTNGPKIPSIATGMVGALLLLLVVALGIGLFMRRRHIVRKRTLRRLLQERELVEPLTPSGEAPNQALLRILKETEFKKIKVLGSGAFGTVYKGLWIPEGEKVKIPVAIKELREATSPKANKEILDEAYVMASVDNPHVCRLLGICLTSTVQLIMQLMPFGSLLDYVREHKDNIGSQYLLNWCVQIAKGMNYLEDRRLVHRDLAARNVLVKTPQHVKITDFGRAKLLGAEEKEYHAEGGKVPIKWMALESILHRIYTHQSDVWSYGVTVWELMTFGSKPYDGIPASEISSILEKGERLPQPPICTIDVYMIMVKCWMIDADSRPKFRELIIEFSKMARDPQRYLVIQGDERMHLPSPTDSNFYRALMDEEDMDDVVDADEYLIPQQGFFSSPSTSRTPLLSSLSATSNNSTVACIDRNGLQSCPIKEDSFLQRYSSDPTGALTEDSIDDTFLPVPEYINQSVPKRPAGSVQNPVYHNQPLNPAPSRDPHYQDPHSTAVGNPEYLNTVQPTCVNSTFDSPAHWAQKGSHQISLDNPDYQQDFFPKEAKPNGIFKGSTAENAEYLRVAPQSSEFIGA

[2] = tested on: BaF3; assay: Cytotoxicity against mouse BAF3 cells incubated for 72 hrs by resazurin dye based assay; format: cell-based; conditions: BaF3, 72 h
[3] = target: Epidermal growth factor receptor (Homo sapiens, UniProt P00533, C797S/L858R/T790M); assay: as §1
Epidermal growth factor receptor, sequence (P00533 whole entry T790M/C797S/L858R): as the sequence (P00533 whole entry T790M/C797S/L858R, the tested form may be a part) above

Compound	inhibition [1]	also measured
COc1cc2ncnc(Nc3ccc(NC(=O)C(c4ccccc4)N4Cc5ccccc5C4=O)cc3F)c2cc1OCN1CCOCC1 (stereo not given)	Active	
COc1cc2c(Nc3ccc(NC(=O)Cc4ccccc4)cc3F)ncnc2cc1OCC1CCN(C)CC1	inactive	
COc1cc(N2CCC(N3CCN(C)CC3)CC2)ccc1Nc1ncc(Cl)c(Nc2ccccc2P(C)(C)=O)n1 [BRIGATINIB]		IC50 [2]: 7.31 µM
COc1cc2ncnc(Nc3ccc(NC(=O)C(c4ccccc4)N4Cc5ccccc5C4=O)cc3F)c2cc1OCCCN1CCOCC1 (stereo not given)	Active	
COc1cc2c(Nc3ccc(NC(=O)C(C4CCCCC4)N4Cc5ccccc5C4=O)cc3F)ncnc2cc1OCC1CCN(C)CC1 (stereo not given)		IC50 [3]: 0.18 µM
